Data reported in patent publication US12257306B2, “Antiviral prodrugs and nanoformulations thereof” (Board of Regents of the University of Nebraska, priority 2018, dated 2025).

Experiments:
[1] = test system: HIV-1; conditions: plasma, cited from earlier work; for 4×PA-IC90: four times protein-adjusted 90% inhibitory concentration
[2] = test system: HIV-1ADA; experiment: Antiretroviral efficacy of prodrugs by HIV reverse transcriptase (RT) activity in MDM; assay type: cell-based; conditions: MDM treated 8 hours, 0.01-1000 nM, challenged with HIV-1ADA MOI 0.01; FIG. 2A
Experimental: The DTG prodrugs M3DTG and M4DTG were studied. First, antiretroviral efficacy was determined by measurement of HIV reverse transcriptase (RT) activity. To assess antiretroviral efficacy, monocyte-derived macrophage (MDM) were treated with either M3DTG or M4DTG for 8 hours over a range of concentrations (0.01-1000 nM). Drug was dosed in 0.1% (v/v) DMSO in media. After treatment, cells were washed with PBS to remove excess of free drug and nanoparticles and the cells were cultured with fresh media, with half-media exchanges every other day. The MDM were challenged with HIV-1ADA at a MOI of 0.01 infectious viral particles/cell for up to 30 days. Progeny virion production was measured by RT activity in culture medium (Kalter, et al. (1992) J. Clin. Microbiol., 30(4):993-995).

| antiretroviral activity (HIV-1 RT activity) [2] | Compound | 4×PA-IC90 [1] [µg/mL] | PA-IC90 ([1]; protein-adjusted 90% inhibitory concentration) [µg/mL] |
| --- | --- | --- | --- |
| – | C[C@H]1CO[C@@H]2Cn3cc(C(=O)NCc4ccc(F)cc4F)c(=O)c(O)c3C(=O)N12 [CAB, cabotegravir] | 0.66 | – |
| – | C[C@@H]1CCO[C@H]2Cn3cc(C(=O)NCc4ccc(F)cc4F)c(=O)c(O)c3C(=O)N12 [DTG, dolutegravir] | 0.256 | 0.064 |
| significant antiretroviral activity | C[C@@H]1CCO[C@H]2Cn3cc(C(=O)NCc4ccc(F)cc4F)c(=O)c(OC(=O)CCCCCCCC(=O)Oc4c5n(cc(C(=O)NCc6ccc(F)cc6F)c4=O)C[C@@H]4OCC[C@@H](C)N4C5=O)c3C(=O)N12 [M3DTG] | – | – |
